Results as given in the supplement of paper PMC11061612.

Tests used:
[1] = compound: CCN(CCO)CCCOc1ccc2c(Nc3cc(CC(=O)Nc4cccc(F)c4)[nH]n3)ncnc2c1 [AZD2811]; details: max 1 µM
In short: (§1)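 Plates with 1536 wells received cancer cell lines in 7.5 μl of DMEM/F12 or RPMI containing 10% FBS. After 24 hours at 37°C and 5% CO2, cells were dosed for 72 hours with final DMSO typically 0.2%, and viability was read by CellTiter-Glo 2.0 luminescence scaled between blank-well and DMSO-well means. The single-agent IC50 was taken from a logistic fit of the dose responses made with a non-linear mixed effects model, that logistic curve having two parameters.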

[2] = compound: Cc1c2c(nn1C)CSCc1cc(n(C)n1)CSc1cc(c3ccccc3c1)OCCCc1c(C(=O)O)n(C)c3c-2c(Cl)ccc13 [AZD5991]; details: max 1 µM
In short: as §1

[3] = compound: COc1cc2ncnc(Nc3ccc(F)c(Cl)c3)c2cc1OCCCN1CCOCC1 [Gefitinib]; details: max 10 µM
In short: as §1

[4] = compound: COc1nnc2ccc(N3CCC(c4ccc(OCCN5CCN(C)C(=O)[C@H]5C)cc4)CC3)nn12 [AZD5153]; details: max 1 µM
In short: as §1

[5] = compound: CCc1c2c(nc3ccc(O)cc13)-c1cc3c(c(=O)n1C2)COC(=O)[C@]3(O)CC [SN-38]; details: max 0.3 µM
In short: as §1

[6] = compound: CS(=O)(=O)CCNCc1ccc(-c2ccc3ncnc(Nc4ccc(OCc5cccc(F)c5)c(Cl)c4)c3c2)o1 [Lapatinib]; details: max 10 µM
In short: as §1

[7] = compound: COc1cccc(OCCCN)c1-c1cc(Nc2cnc(C#N)cn2)n[nH]1 [Prexasertib]; details: max 1 µM
In short: as §1

[8] = compound: COc1cccc2c1C(=O)c1c(O)c3c(c(O)c1C2=O)C[C@@](O)(C(=O)CO)C[C@@H]3O[C@H]1C[C@H](N)[C@H](O)[C@H](C)O1 [Doxorubicin]; details: max 1 µM
In short: as §1

[9] = compound: Cc1cc2ncnn2cc1Nc1ncc2c(n1)n(C1CCOCC1)c(=O)n2C [AZD7648]; details: max 10 µM
In short: as §1

[10] = compound: CC1(C)CCC(CN2CCN(c3ccc(C(=O)NS(=O)(=O)c4ccc(NCC5CCOCC5)c([N+](=O)[O-])c4)c(Oc4cnc5[nH]ccc5c4)c3)CC2)=C(c2ccc(Cl)cc2)C1 [Venetoclax]; details: max 1 µM
In short: as §1

[11] = compound: CC1=C(C(=CC=C1)Cl)NC(=O)C2=CN=C(S2)NC3=CC(=NC(=N3)C)N4CCN(CC4)CCO [Dasatinib]; details: max 2 µM
In short: as §1

[12] = compound: C[C@@H](Oc1cc(-c2cnn(C3CCNCC3)c2)cnc1N)c1c(Cl)ccc(F)c1Cl [Crizotinib]; details: max 10 µM
In short: as §1

[13] = compound: C1CN(CCC1(C(=O)N[C@@H](CCO)C2=CC=C(C=C2)Cl)N)C3=NC=NC4=C3C=CN4 [Capivasertib]; details: max 10 µM
In short: as §1

[14] = compound: C[C@@H]1COCCN1C2=NC(=NC(=C2)C3(CC3)[S@](=N)(=O)C)C4=C5C=CNC5=NC=C4 [AZD6738]; details: max 10 µM
In short: as §1

[15] = compound: Cc1nc(-c2cn3c(n2)-c2ccc(-c4cnn(C(C)(C)C(N)=O)c4)cc2OCC3)n(C(C)C)n1 [Taselisib]; details: max 10 µM
In short: as §1

[16] = compound: CN(CC[C@H](CSC1=CC=CC=C1)NC2=C(C=C(C=C2)S(=O)(=O)NC(=O)C3=CC=C(C=C3)N4CCC(CC4)[C@H](C5=CC=CC=C5C6=CC=C(C=C6)Cl)O)S(=O)(=O)C(F)(F)F)CCO [AZD4320]; details: max 1 µM
In short: as §1

[17] = compound: CN(C)CCCOc1ccc(-c2ccc3ncc4c(c3c2)n(C2CCOCC2)c(=O)n4C)cn1 [AZD0156]; details: max 3 µM
In short: as §1

[18] = compound: C[C@@H](c1ccc2nccn2c1)n1nnc2ncc(-c3cnn(C)c3)nc21 [Savolitinib]; details: max 1 µM
In short: as §1

[19] = compound: Cn1cnc2c(F)c(Nc3ccc(Br)cc3Cl)c(C(=O)NOCCO)cc21 [Selumetinib]; details: max 10 µM
In short: as §1

[20] = compound: COc1cc(Nc2ncc3c(n2)-c2ccc(Cl)cc2C(c2c(F)cccc2OC)=NC3)ccc1C(=O)O [Alisertib]; details: max 10 µM
In short: as §1

[21] = compound: CC1=CN2[C@@H](C1)C=NC3=CC(=C(C=C3C2=O)OC)OCCCCCOC4=C(C=C5C(=C4)N=C[C@@H]6CC(=CN6C5=O)C)OC [SG3199]; details: max 0.001 µM
In short: as §1

[22] = compound: CC(C)n1c(=O)n(C)c2cnc3cc(F)c(-c4ccc(OCCCN5CCCCC5)nc4)cc3c21 [AZD1390]; details: max 0.3 µM
In short: as §1

[23] = compound: CC(=O)Nc1cccc(-n2c(=O)n(C3CC3)c(=O)c3c(Nc4ccc(I)cc4F)n(C)c(=O)c(C)c32)c1 [Trametinib]; details: max 1 µM
In short: as §1

[24] = compound: CC(=O)c1c(C)c2cnc(Nc3ccc(N4CCNCC4)cn3)nc2n(C2CCCC2)c1=O [Palbociclib]; details: max 10 µM
In short: as §1

[25] = compound: C[C@@H](Nc1cc(F)cc(F)c1)c1cc(C(=O)N(C)C)cc2c(=O)cc(N3CCOCC3)oc12 [AZD8186]; details: max 3 µM
In short: as §1

[26] = compound: C=CCn1c(=O)c2cnc(Nc3ccc(N4CCN(C)CC4)cc3)nc2n1-c1cccc(C(C)(C)O)n1 [AZD1775]; details: max 3 µM
In short: as §1

[27] = compound: O=C(c1cc(Cc2n[nH]c(=O)c3ccccc23)ccc1F)N1CCN(C(=O)C2CC2)CC1 [Olaparib]; details: max 10 µM
In short: as §1

| Cell Line | IC50, cell viability 72 h [1] [nM] | IC50, cell viability 72 h [2] [nM] | IC50, cell viability 72 h [3] [nM] | IC50, cell viability 72 h [4] [nM] | IC50, cell viability 72 h [5] [nM] | IC50, cell viability 72 h [6] [nM] | IC50, cell viability 72 h [7] [nM] | IC50, cell viability 72 h [8] [nM] | IC50, cell viability 72 h [9] [nM] | IC50, cell viability 72 h [10] [nM] | IC50, cell viability 72 h [11] [nM] | IC50, cell viability 72 h [12] [nM] | IC50, cell viability 72 h [13] [nM] | IC50, cell viability 72 h [14] [nM] | IC50, cell viability 72 h [15] [nM] | IC50, cell viability 72 h [16] [nM] | IC50, cell viability 72 h [17] [nM] | IC50, cell viability 72 h [18] [nM] | IC50, cell viability 72 h [19] [nM] | IC50, cell viability 72 h [20] [nM] | IC50, cell viability 72 h [21] [nM] | IC50, cell viability 72 h [22] [nM] | IC50, cell viability 72 h [23] [nM] | IC50, cell viability 72 h [24] [nM] | IC50, cell viability 72 h [25] [nM] | IC50, cell viability 72 h [26] [nM] | IC50, cell viability 72 h [27] [nM] |
| --- | --- | --- | --- | --- | --- | --- | --- | --- | --- | --- | --- | --- | --- | --- | --- | --- | --- | --- | --- | --- | --- | --- | --- | --- | --- | --- | --- |
| P32-ISH (Burkitt's Lymphoma) | 77 | 50.1 | > 10000 | 136 | 1.82 | 6900 | 5.37 | 303 | > 10000 | > 1000 | > 2000 | 2270 | 8020 | 2600 | 8180 | > 1000 | > 3000 | > 1000 | > 10000 | 20 | > 1 | > 300 | > 1000 | 6150 | > 3000 | 218 | > 10000 |
| PA-TU-8988T (Pancreatic Carcinoma) | > 1000 | > 1000 | > 10000 | 193 | 185 | > 10000 | > 1000 | 940 | > 10000 | > 1000 | 664 | > 10000 | > 10000 | > 10000 | 6150 | > 1000 | > 3000 | > 1000 | > 10000 | > 10000 | > 1 | > 300 | > 1000 | > 10000 | > 3000 | 1290 | > 10000 |
| PL4 (Pancreatic Carcinoma) | > 1000 | > 1000 | > 10000 | 969 | 43.5 | > 10000 | 117 | > 1000 | > 10000 | > 1000 | 634 | > 10000 | > 10000 | 6410 | 2260 | > 1000 | > 3000 | > 1000 | > 10000 | 8070 | > 1 | > 300 | 106 | > 10000 | > 3000 | 1360 | > 10000 |
| Raji (Burkitt's Lymphoma) | > 1000 | 506 | > 10000 | 371 | 4.3 | > 10000 | 18.7 | 114 | > 10000 | > 1000 | > 2000 | > 10000 | > 10000 | 3810 | > 10000 | > 1000 | > 3000 | > 1000 | > 10000 | > 10000 | > 1 | > 300 | > 1000 | > 10000 | > 3000 | 472 | > 10000 |
